From ChEMBL document CHEMBL5728630, “Aryl, heteroaryl, and heterocyclic pharmaceutical compounds for treatment of medical disorders” (2021)

These molecules were tested against Complement factor D (Homo sapiens, UniProt P00746) (assay: Factor D Assay: Human Factor D (purified from human serum, Complement Technology, Inc.) at 80 nM final concentration is incubated with test compound at various concentrations for 5 min at room temperature in 50 mM Tris, 1M NaCl, pH 7.5. A synthetic substrate Z-L-Lys-SBz and DTNB (Ellman's reagent) are added to final concentrations of 100 μM each. Absorbance at 405 nm (A405) is recorded at 30 second intervals for 30 min using a microplate spectrophotometer. IC50 values are calculated by nonlinear regression of complement Factor D reaction rates as a function of test compound concentration.).
Chain of Complement factor D (P00746 whole entry): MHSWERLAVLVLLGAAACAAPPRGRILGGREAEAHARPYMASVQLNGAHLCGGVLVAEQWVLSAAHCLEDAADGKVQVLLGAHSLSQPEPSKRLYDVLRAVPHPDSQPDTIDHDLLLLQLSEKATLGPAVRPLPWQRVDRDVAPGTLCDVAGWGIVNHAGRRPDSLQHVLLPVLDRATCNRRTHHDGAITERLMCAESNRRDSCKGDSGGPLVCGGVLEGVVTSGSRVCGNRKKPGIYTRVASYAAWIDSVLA

CC(=O)c1nn(CC(=O)N2[C@H](C(=O)N[C@H](C)[C@H]3CC3(Cl)Cl)C[C@@]3(C)C[C@@H]23)c2c(C)cc(-c3cnc(C)nc3)cc12 and CC(=O)c1nn(CC(=O)N2[C@H](C(=O)NCC3CC3)C[C@@]3(C)C[C@@H]23)c2c(C)cc(-c3cnc(C)nc3)cc12 cannot be ordered by IC50: less than 1000 nM for the first, less than 1000 nM for the second.

CC(=O)c1nn(CC(=O)N2[C@H](C(=O)Nc3nc(Br)ccc3C)C[C@@]3(CN4CCC4)C[C@@H]23)c2c(C)nc(-c3cnc(C)nc3)cc12 and CC(=O)c1nn(CC(=O)N2[C@H](C(=O)Nc3nc(Br)ccc3C)C[C@@]3(CN4CCCC4)C[C@@H]23)c2c(C)nc(-c3cnc(C)nc3)cc12 cannot be ordered by IC50: less than 1000 nM for the first, less than 1000 nM for the second.

CC(=O)c1nn(CC(=O)N2[C@H](C(=O)Nc3cc(C)cc(Br)n3)C[C@@]3(C)C[C@@H]23)c2c(C)nc(-c3cnc(C)nc3)cc12 and CC(=O)c1nn(CC(=O)N2[C@H](C(=O)Nc3nc(C(F)(F)F)ccc3C)C[C@@]3(C)C[C@@H]23)c2c(C)nc(-c3cnc(C)nc3)cc12 cannot be ordered by IC50: less than 1000 nM for the first, less than 1000 nM for the second.

CC(=O)c1cn(CC(=O)N2[C@H](C(=O)Nc3nc(Br)ccc3C)C[C@@]3(C)C[C@@H]23)c2cnc(-c3cnc(C)nc3)cc12 and CC(=O)c1nn(CC(=O)N2[C@H](C(=O)Nc3nc(Br)ccc3F)C[C@@]3(C)C[C@@H]23)c2cnc(-c3cnc(C)nc3)cc12 cannot be ordered by IC50: less than 1000 nM for the first, less than 1000 nM for the second.

C=C[C@@]12C[C@@H](C(=O)Nc3nc(Br)ccc3Cc3nnc(CCCC)o3)N(C(=O)Cn3nc(C(C)=O)c4cc(-c5cnc(C)nc5)ncc43)[C@@H]1C2 and CC(=O)c1nn(CC(=O)N2[C@H](C(=O)Nc3nc(Br)ccc3C)C[C@@]3(/C=N/O)C[C@@H]23)c2cnc(-c3cnc(C)nc3)cc12 cannot be ordered by IC50: less than 1000 nM for the first, less than 1000 nM for the second.

Cc1ncc(-c2cc3c(C(C)O)nn(CC(=O)N4[C@H](C(=O)Nc5nc(Br)c(F)cc5C)C[C@@]5(C)C[C@@H]45)c3c(C)n2)cn1 (stereo partly specified) and CC(=O)c1nn(CC(=O)N2[C@H](C(=O)Nc3nc(Br)ccc3C)C[C@@]3(C)C[C@@H]23)c2c(C(F)(F)F)nc(-c3cnc(C)nc3)cc12 cannot be ordered by IC50: less than 1000 nM for the first, less than 1000 nM for the second.

CC(=O)c1nn(CC(=O)N2[C@H](C(=O)Nc3cccc(-c4ccccc4Cl)c3F)C[C@@]3(C)C[C@@H]23)c2c(C)cc(-c3cnc(C)nc3)cc12 and CC(=O)c1nn(CC(=O)N2[C@H](C(=O)Nc3cccc(-c4ccccc4Cl)c3F)C[C@@]3(C)C[C@@H]23)c2ccc(-c3cnc(C)nc3)cc12 cannot be ordered by IC50: less than 1000 nM for the first, less than 1000 nM for the second.

First: CC(=O)c1nn(CC(=O)N2[C@H](C(=O)Nc3nc(Br)ccc3CN3CCC(S(C)(=O)=O)CC3)C[C@@]3(C)C[C@@H]23)c2c(C)cc(-c3cnc(C)nc3)cc12
Second: Cc1ncc(-c2cc(C)c3c(c2)c(C(=O)N2CC4(CCC4)C2)nn3CC(=O)N2[C@H](C(=O)Nc3nc(Br)ccc3C)C[C@@]3(C)C[C@@H]23)cn1
The IC50 of the first is lower: less than 1000 nM for the first, greater than 10000 nM for the second. The first is the more potent here.

COCc1ccc(Br)nc1NC(=O)[C@@H]1C[C@@]2(CNC(C)=O)C[C@H]2N1C(=O)Cn1nc(C(C)=O)c2cc(-c3cnc(C)nc3)ccc21 and CC(=O)c1nn(CC(=O)N2[C@H](C(=O)Nc3nc(Br)ccc3C)C[C@@]3(CNC(=O)C4CCCC4(F)F)C[C@@H]23)c2ccc(-c3cnc(C)nc3)cc12 (stereo partly specified) cannot be ordered by IC50: less than 1000 nM for the first, less than 1000 nM for the second.

CC(=O)c1nn(CC(=O)N2[C@H](C(=O)Nc3nc(Br)ccc3C)C[C@@]3(Cn4cc(C5CC5)nn4)C[C@@H]23)c2cnc(-c3cnc(C)nc3)cc12 and CC[C@@]12C[C@@H](C(=O)Nc3nc(Br)ccc3C)N(C(=O)Cn3nc(C(C)=O)c4cc(-c5cnc(C)nc5)ncc43)[C@@H]1C2 cannot be ordered by IC50: less than 1000 nM for the first, less than 1000 nM for the second.

CC(=O)c1nn(CC(=O)N2[C@H](C(=O)Nc3cnc(C)c(Br)n3)C[C@@]3(C)C[C@@H]23)c2c(C)cc(-c3cnc(C)nc3)cc12 and CCCCNC(=O)[C@@H]1C[C@@]2(C)C[C@H]2N1C(=O)Cn1nc(C(C)=O)c2cc(-c3cnc(C)nc3)cc(C)c21 cannot be ordered by IC50: less than 1000 nM for the first, less than 1000 nM for the second.

First: CC(=O)c1nn(CC(=O)N2[C@H](C(=O)Nc3nc(Br)ccc3C)C[C@@]3(CN(C)C)C[C@@H]23)c2cnc(-c3cnc(C)nc3)cc12
Second: CC(=O)c1nn(CC(=O)N2[C@@H](C(=O)Nc3nc(Br)ccc3C)C[C@@]3(CC(C)C)C[C@@H]23)c2cnc(-c3cnc(C)nc3)cc12
The IC50 of the first is lower: less than 1000 nM for the first, greater than 10000 nM for the second.

COC(=O)Cc1ccc(Br)nc1NC(=O)[C@@H]1C[C@@H](F)CN1C(=O)Cn1nc(C(C)=O)c2cc(-c3cnc(C)nc3)ccc21 and CC(=O)c1nn(CC(=O)N2C[C@H](F)C[C@H]2C(=O)Nc2nc(Br)ccc2C)c2ccc(-c3cnc(OC4CS(=O)(=O)C4)nc3)cc12 cannot be ordered by IC50: less than 1000 nM for the first, less than 1000 nM for the second.

C=CCCc1cc(-c2cnc(C)nc2)cc2c(C(C)=O)nn(CC(=O)N3[C@H](C(=O)Nc4nc(Br)ccc4C)C[C@@]4(COCC=C)C[C@@H]34)c12 and CC(=O)c1nn(CC(=O)N2[C@H](C(=O)Nc3nc(Br)ccc3C)C[C@@]3(CNCC(F)(F)F)C[C@@H]23)c2c(C)cc(-c3cnc(C)nc3)cc12 cannot be ordered by IC50: less than 1000 nM for the first, less than 1000 nM for the second.

CC(=O)c1nn(CC(=O)N2[C@H](C(=O)NCCC3CCCCC3)C[C@@]3(C)C[C@@H]23)c2c(C)cc(-c3cnc(C)nc3)cc12 and CCCCCNC(=O)[C@@H]1C[C@@]2(C)C[C@H]2N1C(=O)Cn1nc(C(C)=O)c2cc(-c3cnc(C)nc3)cc(C)c21 cannot be ordered by IC50: less than 1000 nM for the first, less than 1000 nM for the second.

CC(=O)c1nn(CC(=O)N2[C@H](C(=O)Nc3nc(Br)ccc3C)C[C@@]3(CCF)C[C@@H]23)c2cnc(-c3cnc(C)nc3)cc12 and CC(=O)c1nn(CC(=O)N2[C@H](C(=O)Nc3nc(Br)ccc3C)C[C@@]3(CC(F)F)C[C@@H]23)c2cnc(-c3cnc(C)nc3)cc12 cannot be ordered by IC50: less than 1000 nM for the first, less than 1000 nM for the second.

C#CC(C)NC(=O)c1nn(CC(=O)N2[C@H](C(=O)Nc3nc(Br)ccc3C)C[C@@]3(C)C[C@@H]23)c2ccc(-c3cnc(C)nc3)cc12 (stereo partly specified) and CNC(=O)c1nn(CC(=O)N2[C@H](C(=O)Nc3nc(Br)ccc3C)C[C@@]3(C)C[C@@H]23)c2ccc(-c3cnc(C)nc3)cc12 cannot be ordered by IC50: less than 1000 nM for the first, less than 1000 nM for the second.

CCCCCCNC(=O)[C@@H]1C[C@@]2(C)C[C@H]2N1C(=O)Cn1nc(C(C)=O)c2cc(-c3cnc(C)nc3)cc(C)c21 and CCCCCNC(=O)[C@@H]1C[C@@]2(C)C[C@H]2N1C(=O)Cn1nc(C(C)=O)c2cc(-c3cnc(C)nc3)ccc21 cannot be ordered by IC50: less than 1000 nM for the first, less than 1000 nM for the second.

CC(=O)c1nn(CC(=O)N2[C@H](C(=O)Nc3nc(Br)ccc3COCCF)C[C@@]3(C)C[C@@H]23)c2cnc(-c3cnc(C)nc3)cc12 and COC[C@@]12C[C@@H](C(=O)Nc3nc(Br)ccc3C)N(C(=O)Cn3nc(C(C)=O)c4cc(-c5cnc(C)nc5)ncc43)[C@@H]1C2 cannot be ordered by IC50: less than 1000 nM for the first, less than 1000 nM for the second.

CC(=O)c1nn(CC(=O)N2[C@H](C(=O)Nc3nc(Br)ccc3C)C[C@@]3(C)C[C@@H]23)c2cnc(-c3ccc(C)nc3F)cc12 and CC(=O)c1nn(CC(=O)N2[C@H]3C[C@@]3(C)C[C@H]2C(=O)Nc2nc(Br)ccc2C)c2ccc(-c3cnc(C)nc3)cc12 cannot be ordered by IC50: less than 1000 nM for the first, less than 1000 nM for the second.

CC(=O)C[C@@]12C[C@@H](C(=O)Nc3nc(Br)ccc3C)N(C(=O)Cn3nc(C(C)=O)c4cc(-c5cnc(C)nc5)ncc43)[C@@H]1C2 and CC(=O)c1nn(CC(=O)N2[C@H](C(=O)Nc3nc(Br)ccc3C)C[C@@]3(CNC4=NCCO4)C[C@@H]23)c2cnc(-c3cnc(C)nc3)cc12 cannot be ordered by IC50: less than 1000 nM for the first, less than 1000 nM for the second.

CC(=O)c1nn(CC(=O)N2[C@H](C(=O)Nc3nc(Br)ccc3C3COC(C)(C)O3)C[C@@]3(C)C[C@@H]23)c2cnc(-c3cnc(C)nc3)cc12 (stereo partly specified) and CC(=O)c1nn(CC(=O)N2[C@H](C(=O)Nc3nc(Br)ccc3C)C[C@@]3(C)C[C@@H]23)c2c(C3CC3)nc(-c3cnc(C)nc3)cc12 cannot be ordered by IC50: less than 1000 nM for the first, less than 1000 nM for the second.

CC(=O)c1nn(CC(=O)N2[C@H](C(=O)Nc3nc(Br)ccc3C)C[C@@]3(C)C[C@@H]23)c2ccc(-c3cnc(CN4CCCC(F)(F)C4)nc3)cc12 and CC(=O)c1nn(CC(=O)N2[C@H](C(=O)Nc3nc(Br)ccc3C)C[C@@]3(C)C[C@@H]23)c2ccc(-c3cnc(O)nc3)cc12 cannot be ordered by IC50: less than 1000 nM for the first, less than 1000 nM for the second.

CC(=O)c1nn(CC(=O)N2[C@H](C(=O)NCc3cccc(C)c3)C[C@@]3(C)C[C@@H]23)c2c(C)cc(-c3cnc(C)nc3)cc12 and CC(=O)c1nn(CC(=O)N2[C@H](C(=O)NCc3cccc(F)c3)C[C@@]3(C)C[C@@H]23)c2c(C)cc(-c3cnc(C)nc3)cc12 cannot be ordered by IC50: less than 1000 nM for the first, less than 1000 nM for the second.

CC(=O)c1nn(CC(=O)N2[C@H](C(=O)NCc3cccc(Cl)c3F)C[C@@]3(C)C[C@@H]23)c2c(C)cc(-c3cnc(C)nc3)cc12 and COc1ccccc1CNC(=O)[C@@H]1C[C@@]2(C)C[C@H]2N1C(=O)Cn1nc(C(C)=O)c2cc(-c3cnc(C)nc3)cc(C)c21 cannot be ordered by IC50: less than 1000 nM for the first, less than 1000 nM for the second.

CC(=O)c1nn(CC(=O)N2[C@H](C(=O)Nc3cccc(Br)n3)C[C@@]3(C)C[C@@H]23)c2ccc(-c3cnc(O)nc3)cc12 and C=CCNC(=O)c1nn(CC(=O)N2[C@H](C(=O)Nc3nc(Br)ccc3C)C[C@@]3(C)C[C@@H]23)c2ccc(-c3cnc(C)nc3)cc12 cannot be ordered by IC50: less than 1000 nM for the first, less than 1000 nM for the second.

CC(=O)c1nn(CC(=O)N2[C@H](C(=O)Nc3nc(Br)ccc3C)C[C@@]3(CNC(=O)C(F)(F)F)C[C@@H]23)c2c(C)cc(-c3cnc(C)nc3)cc12 and CC(=O)c1nn(CC(=O)N2[C@H](C(=O)Nc3nc(Br)ccc3C)C[C@@]3(CN4CC(C)(C)C4)C[C@@H]23)c2c(C)nc(-c3cnc(C)nc3)cc12 cannot be ordered by IC50: less than 1000 nM for the first, less than 1000 nM for the second.

CC(=O)c1nn(CC(=O)N2[C@H](C(=O)NCCCc3ccccc3)C[C@@]3(C)C[C@@H]23)c2c(C)cc(-c3cnc(C)nc3)cc12 and CC(=O)c1nn(CC(=O)N2[C@H](C(=O)NCc3ccccc3)C[C@@]3(C)C[C@@H]23)c2c(C)cc(-c3cnc(C)nc3)cc12 cannot be ordered by IC50: less than 1000 nM for the first, less than 1000 nM for the second.

CC(=O)c1nn(CC(=O)N2[C@H](C(=O)NCc3ccc(C)cc3)C[C@@]3(C)C[C@@H]23)c2c(C)cc(-c3cnc(C)nc3)cc12 and COc1ccc(CNC(=O)[C@@H]2C[C@@]3(C)C[C@H]3N2C(=O)Cn2nc(C(C)=O)c3cc(-c4cnc(C)nc4)cc(C)c32)cc1 cannot be ordered by IC50: less than 1000 nM for the first, less than 1000 nM for the second.

Going from C=CCCS(=O)(=O)NC[C@@]12C[C@@H](C(=O)Nc3nc(Br)ccc3C=C)N(C(=O)Cn3nc(C(C)=O)c4cc(-c5cnc(C)nc5)ccc43)[C@@H]1C2 to C#CC(C)(C)NC(=O)c1nn(CC(=O)N2[C@H](C(=O)Nc3nc(Br)ccc3C)C[C@@]3(C)C[C@@H]23)c2ccc(-c3cnc(C)nc3)cc12, the IC50 rises from less than 1000 nM to greater than 10000 nM. The first is the more potent here.

Cc1ncc(-c2ccc3c(c2)c(C(=O)NC(C)(C)C2CC2)nn3CC(=O)N2[C@H](C(=O)Nc3nc(Br)ccc3C)C[C@@]3(C)C[C@@H]23)cn1 was tested, and the IC50 was greater than 10000 nM.
